Measurements published in ChEMBL document CHEMBL1201862, “PubChem BioAssay data set” (2004).
Active and inactive are the calls of the source.

Key:
BJ [1] = assay: BJ-TERT fibroblast viability loss – cell-based, RAS-independent, luminescence, dose response (AID 1933); format: functional; details: Homo sapiens
BJ [2] = assay: cells; format: functional, cell-based; details: Homo sapiens
BJ [3] = assay: BJ-TERT-LT-ST fibroblast viability loss – cell-based, RAS-independent, luminescence, dose response (AID 1935); format: functional; details: Homo sapiens;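 further: BJ fibroblasts immortalized with TERT plus LT and ST oncogenes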
[4] = DRD fibroblast viability loss – cell-based, non-viral oncogenic, luminescence, dose response (AID 1934); format: functional; details: Homo sapiens
[5] = target: G-protein coupled receptor 55 (Homo sapiens, UniProt Q9Y2T6); assay: selective activators of receptor GPR55 – imaging, U2OS cells, beta-arrestin-GFP redistribution, primary screen (AID 1961); format: functional
[6] = target: T1, Microphthalmia-associated transcription factor (Homo sapiens, UniProt O75030); assay: reducers of TRPM1 reporter luminescence, concentration series – cell-based, SK-MEL-5, cherry-picked, set 3, MITF inhibitor project, dose response (AID 493073); format: functional;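 further: SK-MEL-5 melanoma cells with luciferase driven by the MITF target TRPM1 promoter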
T1 sequence (O75030 whole entry): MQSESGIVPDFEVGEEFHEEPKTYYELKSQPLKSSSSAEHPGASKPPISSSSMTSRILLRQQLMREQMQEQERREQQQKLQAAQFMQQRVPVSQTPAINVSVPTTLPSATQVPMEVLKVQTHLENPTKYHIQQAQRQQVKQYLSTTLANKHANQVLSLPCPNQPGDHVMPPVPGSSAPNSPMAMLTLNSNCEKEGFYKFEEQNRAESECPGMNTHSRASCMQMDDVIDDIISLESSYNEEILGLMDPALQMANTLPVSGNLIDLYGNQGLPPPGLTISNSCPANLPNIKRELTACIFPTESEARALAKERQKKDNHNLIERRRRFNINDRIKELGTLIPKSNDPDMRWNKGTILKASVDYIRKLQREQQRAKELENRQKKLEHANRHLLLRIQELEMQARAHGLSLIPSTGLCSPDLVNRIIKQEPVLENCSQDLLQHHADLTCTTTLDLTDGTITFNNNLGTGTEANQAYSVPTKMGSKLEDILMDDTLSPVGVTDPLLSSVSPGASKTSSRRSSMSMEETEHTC

BJ [7] = assay: growth inhibition of engineered Ras-driven BJ cells – cell-based, alamar blue fluorescence, cherrypicked samples, dose response (AID 2631); format: functional; details: Homo sapiens;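 further: confirmatory dose-response assay in RAS-dependent BJ fibroblasts engineered with TERT, LT and ST, with cytotoxicity read by fluorescence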
Prothrombin = Prothrombin (Homo sapiens, UniProt P00734); assay: Thrombin 1536 HTS Dose Response Confirmation. [Related pubchem assays: 1046 (Thrombin 1536 HTS; hits were confirmed in this assay)]; format: functional
Saccharomyces cerevisiae = assay: S. cerevisiae Caspase-1/ASC signal blockers IC50, NALP1 inhibitor project selectivity test (AID 488863); format: functional, organism-based
[8] = target: NACHT, LRR and PYD domains-containing protein 1 (Homo sapiens, UniProt Q9C000); assay: NALP1 inhibitors in yeast, dose response, luminescent (AID 488860); format: functional
[9] = target: DNA dC->dU-editing enzyme APOBEC-3A (Homo sapiens, UniProt P31941); assay: A3A deaminase inhibition for selectivity – biochemical, dose response (AID 504722); format: functional
[10] = target: DNA dC->dU-editing enzyme APOBEC-3G (Homo sapiens, UniProt Q9HC16); assay: Dose Response confirmation of small molecule APOBEC3G DNA Deaminase Inhibitors via a fluorescence-based single-stranded DNA deaminase assay. [Related pubchem assays (depositor defined):AID493012, AID493028]; format: functional
[11] = target: FAD-linked sulfhydryl oxidase ALR (Homo sapiens, UniProt P55789); assay: ALR-catalysed DTT oxidation blockers – biochemical, H2O2 detection, luminescence, cherry-pick, dose response (AID 493248)
[12] = target: Diphosphomevalonate decarboxylase (Streptococcus pneumoniae serotype 2 (strain D39 / NCTC 7466), UniProt Q9FD53); assay: diphosphomevalonate decarboxylase inhibitor confirmation – biochemical, cuvette format, coupled NADH fluorescence (AID 1028); format: functional
[13] = target: T2, Mannose-6-phosphate isomerase (Homo sapiens, UniProt P34949); assay: phosphomannose isomerase inhibition – biochemical, fluorescence intensity, confirmation (AID 1535)
T2 sequence (P34949 whole entry): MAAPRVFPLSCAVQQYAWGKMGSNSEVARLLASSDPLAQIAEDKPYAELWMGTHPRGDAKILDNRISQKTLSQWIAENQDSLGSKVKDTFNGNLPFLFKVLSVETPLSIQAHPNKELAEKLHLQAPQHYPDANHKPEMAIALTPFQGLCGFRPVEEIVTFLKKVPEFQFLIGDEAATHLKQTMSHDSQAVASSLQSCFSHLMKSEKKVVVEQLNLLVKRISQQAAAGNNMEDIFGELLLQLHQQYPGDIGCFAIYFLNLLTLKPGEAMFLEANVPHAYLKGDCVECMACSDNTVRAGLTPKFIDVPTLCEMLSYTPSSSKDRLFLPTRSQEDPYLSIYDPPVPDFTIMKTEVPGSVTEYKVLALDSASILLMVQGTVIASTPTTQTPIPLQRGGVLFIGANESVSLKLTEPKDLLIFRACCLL

Phosphomannomutase 2 = Phosphomannomutase 2 (Homo sapiens, UniProt O15305); assay: Counter screen SAR assay for PMM2 inhibitors via a fluorescence intensity assay. [Related pubchem assays (depositor defined):AID1545, AID1574]
[14] = target: Phosphoethanolamine/phosphocholine phosphatase (Homo sapiens, UniProt Q8TCT1); assay: SAR assay for compounds that inhibit PHOSPHO1. [Related pubchem assays (depositor defined):AID1545, AID1565, AID1574]
[15] = target: T3, Alkaline phosphatase, tissue-nonspecific isozyme (Homo sapiens, UniProt P05186); assay: potency against alkaline phosphatase TNAP – biochemical, luminescent, dose response, SAR follow-up (AID 1056)
T3 sequence (P05186 whole entry): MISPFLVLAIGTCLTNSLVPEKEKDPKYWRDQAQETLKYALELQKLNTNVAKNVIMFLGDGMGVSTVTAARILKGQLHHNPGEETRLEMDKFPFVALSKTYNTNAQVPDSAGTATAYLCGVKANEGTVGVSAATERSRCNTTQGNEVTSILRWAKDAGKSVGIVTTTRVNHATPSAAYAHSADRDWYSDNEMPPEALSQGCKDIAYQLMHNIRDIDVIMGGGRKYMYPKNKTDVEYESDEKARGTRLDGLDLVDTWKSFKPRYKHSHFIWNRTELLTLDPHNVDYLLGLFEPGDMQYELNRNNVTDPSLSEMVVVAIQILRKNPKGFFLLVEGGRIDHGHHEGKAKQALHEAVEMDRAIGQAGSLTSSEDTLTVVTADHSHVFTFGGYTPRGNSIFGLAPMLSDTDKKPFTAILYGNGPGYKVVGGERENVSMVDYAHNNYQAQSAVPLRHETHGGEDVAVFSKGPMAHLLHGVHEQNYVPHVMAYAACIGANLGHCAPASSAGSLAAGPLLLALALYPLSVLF

Chain of Phosphoethanolamine/phosphocholine phosphatase (Q8TCT1 whole entry): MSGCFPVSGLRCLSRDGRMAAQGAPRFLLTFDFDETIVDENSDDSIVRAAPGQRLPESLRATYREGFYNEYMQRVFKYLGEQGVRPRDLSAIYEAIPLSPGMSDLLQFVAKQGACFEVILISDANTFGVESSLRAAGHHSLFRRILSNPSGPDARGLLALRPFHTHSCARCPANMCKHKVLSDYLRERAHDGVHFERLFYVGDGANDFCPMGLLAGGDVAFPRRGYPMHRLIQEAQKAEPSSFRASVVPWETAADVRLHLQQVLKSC
Chain of Phosphomannomutase 2 (O15305 whole entry): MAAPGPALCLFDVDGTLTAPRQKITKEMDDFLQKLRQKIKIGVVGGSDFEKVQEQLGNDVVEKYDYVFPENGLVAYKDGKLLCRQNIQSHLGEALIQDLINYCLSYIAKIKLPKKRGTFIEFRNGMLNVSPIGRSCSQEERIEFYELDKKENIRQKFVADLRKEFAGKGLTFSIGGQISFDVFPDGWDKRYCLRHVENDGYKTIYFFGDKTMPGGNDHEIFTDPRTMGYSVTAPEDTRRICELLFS
Chain of NACHT, LRR and PYD domains-containing protein 1 (Q9C000 1-1212 limits assumed): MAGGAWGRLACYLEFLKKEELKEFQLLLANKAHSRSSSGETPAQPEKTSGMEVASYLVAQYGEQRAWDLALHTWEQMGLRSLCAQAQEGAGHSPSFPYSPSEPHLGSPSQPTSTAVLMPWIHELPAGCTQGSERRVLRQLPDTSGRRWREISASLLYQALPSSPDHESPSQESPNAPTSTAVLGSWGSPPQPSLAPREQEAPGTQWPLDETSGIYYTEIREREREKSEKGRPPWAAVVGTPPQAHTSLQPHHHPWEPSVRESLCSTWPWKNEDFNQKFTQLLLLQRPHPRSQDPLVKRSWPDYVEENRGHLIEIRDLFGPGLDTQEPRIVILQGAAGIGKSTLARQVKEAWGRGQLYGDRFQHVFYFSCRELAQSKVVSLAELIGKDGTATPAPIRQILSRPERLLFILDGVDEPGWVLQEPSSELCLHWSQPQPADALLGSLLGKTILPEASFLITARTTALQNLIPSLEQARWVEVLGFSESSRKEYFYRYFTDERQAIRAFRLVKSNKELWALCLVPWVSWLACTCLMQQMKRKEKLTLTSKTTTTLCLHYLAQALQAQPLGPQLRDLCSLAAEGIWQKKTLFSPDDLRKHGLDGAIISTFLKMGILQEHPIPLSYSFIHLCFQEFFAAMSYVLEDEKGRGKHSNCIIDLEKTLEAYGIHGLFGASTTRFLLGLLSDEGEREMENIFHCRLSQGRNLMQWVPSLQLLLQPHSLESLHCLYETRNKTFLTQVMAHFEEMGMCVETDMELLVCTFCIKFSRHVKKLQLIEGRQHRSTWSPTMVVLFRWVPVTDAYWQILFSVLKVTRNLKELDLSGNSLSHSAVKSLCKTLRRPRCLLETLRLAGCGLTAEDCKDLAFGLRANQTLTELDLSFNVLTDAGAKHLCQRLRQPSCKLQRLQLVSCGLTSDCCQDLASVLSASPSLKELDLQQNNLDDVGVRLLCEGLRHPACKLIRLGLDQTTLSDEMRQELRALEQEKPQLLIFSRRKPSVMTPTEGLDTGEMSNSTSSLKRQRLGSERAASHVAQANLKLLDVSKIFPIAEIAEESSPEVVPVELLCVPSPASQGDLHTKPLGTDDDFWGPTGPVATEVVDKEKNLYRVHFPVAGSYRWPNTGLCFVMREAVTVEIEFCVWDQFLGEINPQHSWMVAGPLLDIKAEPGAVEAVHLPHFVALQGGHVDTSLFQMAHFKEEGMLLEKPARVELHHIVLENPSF
Chain of NACHT, LRR and PYD domains-containing protein 1 (Q9C000 1213-1473 limits assumed): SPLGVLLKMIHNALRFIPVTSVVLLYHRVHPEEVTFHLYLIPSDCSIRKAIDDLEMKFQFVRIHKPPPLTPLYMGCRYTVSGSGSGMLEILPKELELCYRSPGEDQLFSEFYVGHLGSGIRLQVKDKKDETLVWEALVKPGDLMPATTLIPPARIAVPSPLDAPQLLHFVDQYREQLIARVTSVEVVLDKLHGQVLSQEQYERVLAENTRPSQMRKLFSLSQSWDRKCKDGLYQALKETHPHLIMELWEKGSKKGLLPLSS
Chain of DNA dC->dU-editing enzyme APOBEC-3G (Q9HC16 whole entry): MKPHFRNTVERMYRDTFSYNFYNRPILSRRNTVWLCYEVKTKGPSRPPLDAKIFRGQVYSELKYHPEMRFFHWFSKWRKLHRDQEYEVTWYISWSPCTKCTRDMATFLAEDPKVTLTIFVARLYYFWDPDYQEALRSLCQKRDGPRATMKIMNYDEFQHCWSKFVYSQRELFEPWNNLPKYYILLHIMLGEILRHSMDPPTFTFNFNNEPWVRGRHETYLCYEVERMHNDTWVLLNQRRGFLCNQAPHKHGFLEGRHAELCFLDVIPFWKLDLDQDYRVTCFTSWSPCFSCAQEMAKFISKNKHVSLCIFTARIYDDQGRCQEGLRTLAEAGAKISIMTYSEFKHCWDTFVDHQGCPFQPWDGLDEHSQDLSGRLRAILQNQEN
Chain of G-protein coupled receptor 55 (Q9Y2T6 whole entry): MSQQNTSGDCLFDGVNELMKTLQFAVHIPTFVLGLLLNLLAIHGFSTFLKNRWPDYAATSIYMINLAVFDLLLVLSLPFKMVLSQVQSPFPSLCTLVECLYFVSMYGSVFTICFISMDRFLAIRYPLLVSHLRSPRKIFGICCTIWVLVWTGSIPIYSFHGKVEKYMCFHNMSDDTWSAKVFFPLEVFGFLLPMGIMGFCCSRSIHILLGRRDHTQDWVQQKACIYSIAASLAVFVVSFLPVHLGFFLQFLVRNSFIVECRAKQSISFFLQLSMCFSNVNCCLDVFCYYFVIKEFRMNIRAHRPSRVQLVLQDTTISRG
Chain of DNA dC->dU-editing enzyme APOBEC-3A (P31941 whole entry): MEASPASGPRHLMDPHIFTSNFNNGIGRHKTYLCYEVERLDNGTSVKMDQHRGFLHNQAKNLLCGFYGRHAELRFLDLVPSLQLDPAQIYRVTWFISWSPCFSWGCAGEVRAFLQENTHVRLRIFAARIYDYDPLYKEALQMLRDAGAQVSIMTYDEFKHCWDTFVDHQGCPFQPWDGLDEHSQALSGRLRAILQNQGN
Chain of FAD-linked sulfhydryl oxidase ALR (P55789 whole entry): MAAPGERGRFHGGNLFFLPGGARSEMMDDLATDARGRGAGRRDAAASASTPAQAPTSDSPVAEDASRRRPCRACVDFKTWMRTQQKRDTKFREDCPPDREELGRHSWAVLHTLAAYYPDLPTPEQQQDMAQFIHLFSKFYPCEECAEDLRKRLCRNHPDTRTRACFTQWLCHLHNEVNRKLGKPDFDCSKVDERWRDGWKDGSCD
Chain of Diphosphomevalonate decarboxylase (Q9FD53 whole entry): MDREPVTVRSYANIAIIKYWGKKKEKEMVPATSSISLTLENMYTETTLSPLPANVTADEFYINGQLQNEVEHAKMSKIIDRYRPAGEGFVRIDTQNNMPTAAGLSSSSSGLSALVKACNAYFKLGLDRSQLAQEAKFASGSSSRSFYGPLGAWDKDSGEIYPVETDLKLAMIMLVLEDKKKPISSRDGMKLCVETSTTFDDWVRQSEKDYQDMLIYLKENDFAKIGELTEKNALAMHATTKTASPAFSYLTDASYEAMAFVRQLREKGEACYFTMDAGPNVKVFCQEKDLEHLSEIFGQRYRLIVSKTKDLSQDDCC

Which EC50 (BJ [1]) does the source give for `COc1ccc(C(=O)/C=C/C(=O)N(CC(=O)NC2CCCCC2)Cc2ccccc2OC)c(O)c1` here?
Its EC50 is 2.2 µM (active).

And the EC50 (BJ [2])?
Its EC50 is 3.7 µM (active).

And the EC50 (BJ [3])?
Its EC50 is 2.57 µM (inconclusive).

What about the EC50 [4] of the same compound?
The EC50 was 3.39 µM (active).

What about the EC50 [5] of the same compound?
Its EC50 is > 32 µM (inactive).

And the AC50 [6]?
The AC50 was 4.04 µM (active).

What about the EC50 (BJ [7]) of the same compound?
Its EC50 is 5.02 µM (inconclusive).

Which IC50 (Prothrombin) does the source give for `COCC(=O)n1nc(-c2ccc(Cl)cc2)nc1NCc1ccc(F)cc1` here?
The IC50 was 1.8 µM (active).

What about the IC50 (Saccharomyces cerevisiae) of the same compound?
The IC50 was > 100 µM (inactive).

What about the IC50 [8] of the same compound?
Its IC50 is > 100 µM (inactive).

Which results are given for `CCn1c(-c2ccc(Cl)cc2)n[nH]c1=S`?
IC50 [9]: > 100 µM (inactive); IC50 [10]: 5.43 µM (active); AC50 [11]: 6.5 µM (active)

Which results are given for `O=C(NCc1ccccc1)c1cccc(-n2sc3ccccc3c2=O)c1`?
IC50 [12]: 4.74 µM (active); IC50 [13]: 2.25 µM (active); IC50 (Phosphomannomutase 2): 17.8 µM (active); IC50 [14]: 2.33 µM (inactive); IC50 [15]: > 100 µM (inactive)
